Reference: US11390648B2, “Peptide” (HYSENSBIO, priority 2017, dated 2022)

tested on: Dspp gene; test: Dspp mRNA level in human dental pulp cells treated with peptide (real-time PCR); format: cell-based; conditions: hDPCs, peptide 10 μg/ml, 48 hours; ratio relative to Dspp mRNA level of untreated control; GAPDH internal control; triplicate
Method: Human dental pulp cells were separated from wisdom teeth of adults (aged 18-22) at the School of Dentistry, Seoul National University. In detail, all experiments were performed after the approval of the Institutional Review Board and the informed consent from patients. Wisdom teeth were fractured according to a method of Jung HS et al. (J Mol Histol.(2011)) to expose the dental pulps, and dental pulp tissues were separated with forceps. Each of the separated dental pulp tissues was cut into small pieces with a razor blade, put in a 60-mm dish, covered with a coverslip, and then cultured in a Dulbecco's modified Eagle's medium. It has been known that human dental pulp cells can differentiate into odontoblast, osteoblast, cementoblast, and periodontal ligament cells under various conditions (Tissue Eng Part A. 2014 April; 20 (7-8): 1342-51).
Total RNA was extracted from human dental pulp cells (hDPCs), and human bone marrow mesenchymal stem cells (hBMSCs) with TRIzol reagent. 2 μg of the total RNA, 1 μl of reverse transcriptase, and 0.5 μg of oligo (oligo; dT) were used to synthesize cDNA. The synthesized cDNA was used in a real-time polymerase chain reaction. The real-time polymerase chain reaction was performed on an ABI PRISM 7500 sequence detection system (Applied Biosystems) and an SYBR GREEN PCR Master Mix (Takara, Japan). The real-time polymerase chain reaction was performed under conditions of 94° C., 1 min; 95° C., 15 sec; 60° C., 34 sec for 40 cycles. Results were analyzed by a comparative cycle threshold (CT) method. And the used primers are as follows (Table 17).
The human dental pulp cells (hDPCs) cultured in Example 3 were treated with the peptides (concentration of 10 μg/ml) of each group synthesized in Example 1-1, and cultured for 48 hours. Then, mRNA levels of an odontoblast differentiation marker Dspp gene expressed in the human dental pulp cells were measured, and a ratio of the measured Dspp mRNA level relative to a Dspp mRNA level measured in a control group was calculated, respectively (Tables 18 to 33).
The expression level of the Dspp gene was measured through RT-PCR and real-time PCR analysis described in Example 1-4. In this regard, GAPDH gene was used as an internal control. The experiments were performed in triplicate, and then mean values and standard deviations thereof were taken as measured values. The base sequence of the primers is described in Table 17 above.

Substance	mRNA level of Dspp gene, Mean
123 (KYKKRRK; Novel peptide) [compound 123]	1.837
82 (KYKNRKR; Novel peptide) [compound 82]	1.909
106 (KYNNRKR; Novel peptide) [compound 106]	1.673
62 (KYNKKRK; Novel peptide) [compound 62]	2.752
121 (KYKKRKK; Novel peptide) [compound 121]	2.024
66 (KYNRRKR; Novel peptide) [compound 66]	2.072
97 (KYNQRKK; Novel peptide) [compound 97]	1.515
90 (KYQNRKR; Novel peptide) [compound 90]	1.797
57 (KYNKRKK; Novel peptide) [compound 57]	2.415
56 (KYQKKRR; Novel peptide) [compound 56]	1.909
9 (KYRQRKK; Novel peptide) [compound 9]	7.543
125 (KYKKKKK; Novel peptide) [compound 125]	2.082
84 (KYKNRRR; Novel peptide) [compound 84]	2.101
87 (KYKNKKR; Novel peptide) [compound 87]	1.888
58 (KYNKRKR; Novel peptide) [compound 58]	2.677
17 (KYKQRKK; Novel peptide) [compound 17]	7.712
127 (KYKKKKR; Novel peptide) [compound 127]	1.888
27 (KYQQRRK; Novel peptide) [compound 27]	2.213
99 (KYNQRRK; Novel peptide) [compound 99]	1.737
103 (KYNQKKR; Novel peptide) [compound 103]	1.737
51 (KYQKRRK; Novel peptide) [compound 51]	1.569

Substance	mRNA level of Dspp gene, Mean
77 (KYRNKKK; Novel peptide) [compound 77]	1.939
75 (KYRNRRK; Novel peptide) [compound 75]	2.624
83 (KYKNRRK; Novel peptide) [compound 83]	2.001
35 (KYRRRRK; Novel peptide) [compound 35]	3.017
65 (KYNRRKK; Novel peptide) [compound 65]	2.201
85 (KYKNKKK; Novel peptide) [compound 85]	1.838
91 (KYQNRRK; Novel peptide) [compound 91]	1.913
95 (KYQNKKR; Novel peptide) [compound 95]	1.939
19 (KYKQRRK; Novel peptide) [compound 19]	7.931
40 (KYRRKRR; Novel peptide) [compound 40]	3.109
104 (KYNQKRR; Novel peptide) [compound 104]	1.878
26 (KYQQRKR; Novel peptide) [compound 26]	2.623
31 (KYQQKKR; Novel peptide) [compound 31]	2.432
71 (KYNRKKR; Novel peptide) [compound 71]	2.052
2 (KYQRRKR; Novel peptide) [compound 2]	7.171
105 (KYNNRKK; Novel peptide) [compound 105]	1.664
72 (KYNRKRR; Novel peptide) [compound 72]	1.739
10 (KYRQRKR; Novel peptide) [compound 10]	6.996
128 (KYKKKRR; Novel peptide) [compound 128]	1.765
68 (KYNRRRR; Novel peptide) [compound 68]	2.343
47 (KYKRKKR; Novel peptide) [compound 47]	2.439
